# Laboratory results published in the supplement of paper PMC8967900.
# Key:
# Experiment in all cases: selective drug sensitivity score (sDSS, relative to normal bone marrow) (sDSS (score)); higher = more potent and effective on the cell line relative to normal bone marrow cells
# Details in all cases: 72 h
# KASUMI-9 = test system: KASUMI-9
# COG-LL-402h = test system: COG-LL-402h
# RCH-ACV = test system: RCH-ACV
# 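Also: ALL cell lines in 384-well plates, five doses spanning 10,000-fold, each plate scaled between vehicle and 100 µmol/L benzalkonium chloride controls, sDSS an adapted area-under-curve metric.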
SMILES,selective drug sensitivity score (KASUMI-9),selective drug sensitivity score (COG-LL-402h),selective drug sensitivity score (RCH-ACV)
CN1CCN(C2CCC(n3cc(-c4ccc(Oc5ccccc5)cc4)c4c(N)ncnc43)CC2)CC1 (stereo not given) (top concentration 10000 nM),6.52,18.2,22.7
CC[C@H](CC#N)OC(=O)N[C@@H](C)c1cccc(NC(=O)Nc2ccc(-c3cnco3)c(OC)c2)c1 [AVN944] (top concentration 10000 nM),13.5,9.64,22
COc1ccc(-c2ccc3c(N4CCOC[C@@H]4C)nc(N4CCOC[C@@H]4C)nc3n2)cc1CO [AZD8055] (top concentration 10000 nM),13.3,9.88,27.4
COc1cccc2c1C(=O)c1c(O)c3c(c(O)c1C2=O)C[C@@](O)(C(=O)CO)C[C@@H]3O[C@H]1C[C@H](N)[C@@H](O)[C@H](C)O1 [Epirubicin] (top concentration 1000 nM),7.62,14.9,12.9
CO[C@H]1C[C@@H]2CC[C@@H](C)[C@@](O)(O2)C(=O)C(=O)N2CCCC[C@H]2C(=O)O[C@H]([C@H](C)C[C@@H]2CC[C@@H](OCCO)[C@H](OC)C2)CC(=O)[C@H](C)/C=C(\C)[C@@H](O)[C@@H](OC)C(=O)[C@H](C)C[C@H](C)/C=C/C=C/C=C/1C [Everolimus] (top concentration 100 nM),10.3,1,16
CON(C)C(=O)N1N=C(c2cc(F)ccc2F)S[C@@]1(CCCN)c1ccccc1 [Filanesib] (top concentration 1000 nM),12.4,17.7,16.3
CN(Cc1cnc2nc(N)nc(N)c2n1)c1ccc(C(=O)N[C@@H](CCC(=O)O)C(=O)O)cc1 [Methotrexate] (top concentration 5000 nM),-0.42,2.38,9.48
CC[C@@]1(O)C(=O)OCc2c1cc1n(c2=O)Cc2cc3c(CN(C)C)c(O)ccc3nc2-1 [Topotecan] (top concentration 10000 nM),18.2,17.7,19.5
O=c1[nH]c(=O)n([C@H]2C[C@H](O)[C@@H](CO)O2)cc1C(F)(F)F [Trifluridine] (top concentration 10000 nM),6.56,8.26,15.2
Cc1sc2c(c1C)C(c1ccc(Cl)cc1)=N[C@@H](CC(=O)NCCCCNC(=O)COc1cccc3c1C(=O)N(C1CCC(=O)NC1=O)C3=O)c1nnc(C)n1-2 (stereo not given in full) [dBET1] (top concentration 10000 nM),2.42,2.22,0.22
